Reference: PMC11459959, “Discovery of new acetamide derivatives of 5-indole-1,3,4-oxadiazol-2-thiol as inhibitors of HIV-1 Tat-mediated viral transcription” (Antimicrobial Agents and Chemotherapy, 2024)

Key:
HIV-1NL4-3 [1] = assay: Time-of-addition assay in TZM-bl cells; type: cell-based; conditions: HIV-1NL4-3 MOI 1, 9 and 13 1.5 μM, T-20 1 µM, triptolide 5 nM, ARVs 1 µM, F-Luc at 54 h
Description: (§1) Fig 5 (A) Time-of-addition assay. […] Subsequently, the cells were treated with the compounds at the indicated time points (0, 1, 2, 4, 6, 8, 10, 12, 24, 30, 36, 42, and 48 h) after HIV-1 infection. The final concentrations of compounds are described in Materials and Methods. Viral activity according to the timing of drug addition was measured as F-Luc activity at 54 h after infection. The relative activities are represented as the mean ± SD (n = 3) compared with the activity observed 54 h post-infection. The relative time frames associated with each HIV-1 infection step are defined based on the time frame of susceptibility to the drug that blocks that particular infection step. […] At 16 h after infection, the viral reverse transcription (RT) product (viral cDNA) level was determined by quantitative real-time PCR (RT-qPCR) using gag and 18S rRNA primer sets and represented as the mean ± SD (n = 3) normalized against the amount of the 18S rRNA compared with the DMSO control. **P < 0.01 compared with the vehicle (DMSO). (C) An in vitro integrase (IN) assay was performed with 10 µM of the indicated compounds following the manufacturer’s protocol. **P < 0.01 compared with vehicle (DMSO). (D) A3.01 cells were infected with HIV-1 upon treatment with the indicated compounds (5 µM) and ARVs (EFV and DTG) as the experimental controls. At 40 h after infection, cellular chromosomal DNA was purified, and the integrated proviral DNA was detected through nested Alu-PCR amplification.
A time-of-addition assay was performed as previously described ([25]) with minor modifications. […] Reference drug and test compounds were subsequently added at the indicated time (0, 1, 2, 4, 6, 8, 10, 12, 24, 30, 36, 42, and 48 h after infection). Final concentrations were as follows: compounds 9 and 13 (1.5 μM), T-20 (1 µM), Triptolide (5 nM), and ARVs (AZT, EFV, DTG, RAL) (1 µM). The viral activity according to the timing of drug addition was measured using a Bright Glo luciferase assay kit (Promega). Virus activity curves present a % activity relative to the activity observed at 54 h after infection, and the data are presented as the mean ± standard deviation (SD) (n = 3). The relative time frame associated with each HIV-1 infection step was defined based on the sensitivity to each drug that blocks a particular infection step.

HIV-1NL4-3 [2] = assay: HIV-1 replication in PBMCs (p24 […]); type: cell-based; conditions: for EC50: Human immunodeficiency virus 1, PBMC, 72 h
Description: (§2) The p24 level from the cell supernatant was subsequently determined using a p24 […] kit (PerkinElmer). In parallel, the cell viability was determined without viral infection because of the viral cytopathic effect. […] In parallel, cell viability was determined. The data (A and B) are presented as the mean ± SD (n = 3). (C) PBMCs (4 × 10^5) infected with HIV-AD8 at an MOI of 0.1 were treated with 1.5 µM of the compounds or ARVs for 3 days. The levels of p24 and cell viability were subsequently determined. (D) J1.1 cells were cultured with the compounds ([…]) under 50 ng/mL phorbol myristate acetate (PMA) treatment for 2 days. The level of p24 was subsequently determined. (E) J-Lat 6.3 cells were treated with the compounds (1.5 µM) under 1 µg/mL of PMA for 2 days. The GFP-positive cell population was analyzed using flow cytometry. The data are represented as a value relative to the DMSO-treated vehicle (D) and a percent of the GFP^+ cell population (E) as mean ± SD (n = 3).
(§3) The inhibitory effects of the compounds on viral replication were determined with some minor modifications, as previously described ([12], [62]). […] PBMCs (4 × 10^5) pre-activated with PHA-M for 3 days were washed with fresh media to remove excess PHA-M and subsequently infected with HIV-1NL4-3 or HIV-1AD8 or PIs-resistant HIV-1 strains as A3.01 infection. After infection, the infectious media were replaced with fresh media supplemented with international 10 units (IU)/mL of IL-2 and the indicated compounds. At 72 h after infection, the inhibitory effect of the compounds on viral replication was determined by measuring the p24 amount, an HIV capsid protein, using an HIV-1 p24 […] kit (PerkinElmer, Waltham, MA, USA). Cell viability was determined as described above. The inhibitory effects on provirus reversing in J1.1 and J-Lat 6.3 cells were determined as previously described ([12], [41], [63]) with some minor modifications. Briefly, 5 × 10^4 persistently HIV-1-infected J1.1 or J-Lat 6.3 cells were cultured in either the presence or absence of the compounds at a final concentration of 1.5 µM and treated with PMA (50 ng/mL for J1.1 cells, 1 µg/mL for J-Lat 6.3 cells). Two days after treatment, the levels of viral production were determined using p24 […] for J1.1 cells and flow cytometry analysis for GFP-expressing J-Lat 6.3 cells.

[3] = system: proviral DNA integrated to the host chromosome; assay: Integrated proviral DNA, nested Alu-PCR in A3.01 cells; type: cell-based, HIV-1; conditions: compounds 5 µM, 40 h after infection
Description: as §1
The activity of HIV-1 RT was determined as previously described with some minor modifications ([66][–][68]). In brief, HIV-1NL4-3 obtained from plasmid transfection was treated with DNase I (2.5 U/mL) for 2 h at 37°C to remove the plasmid DNA. […] Sixteen hours after infection, the cell cytosolic DNA was isolated under RNase A treatment, and the RT products (cytosolic viral cDNA) were quantified using RT-qPCR and the following primers: gag forward, 5′-[…]-3′, gag reverse, 5′-[…]-3′; 18S rRNA forward, 5′-[…]-3′, 18S rRNA reverse, 5′-[…]-3′. The relative levels of RT products were analyzed using the ΔΔCt-method, as described above. In vitro integrase activity was determined using an HIV-1 integrase assay kit (XpressBio, Frederick, MD, USA) as previously described ([12]). In brief, a 96-well plate coated with donor substrate DNA was blocked, and HIV-1 integrase was then added to the plate. Subsequently, the compounds and target substrate DNA were added to the plate and incubated for 30 min at 37°C. The plate was washed and subsequently incubated with horse radish peroxidase. Integrase activity was measured by the peroxidase activity with the substrate at an optical density of 450 nm. The experiment was performed in triplicates. Detection of integrated proviral DNA was performed as previously described ([69]) with some minor modifications. […] Chromosomal DNA was purified using the G-Spin DNA extraction kit (Intron Bio Tech, Seongnam-si, Gyeonggi-do, Republic of Korea). The integrated proviral HIV-1 DNA was detected by nested Alu-PCR amplification using the following primers: first round PCR, Alu forward, 5′-[…]-3′, pol reverse, 5′-[…]-3′; second round PCR, gag forward, 5′-[…]-3′, pol reverse. gapdh was used as the control gene.

HIV-1NL4-3 [4] = assay: HIV-1 replication in A3.01 cells (p24 […]); type: cell-based; conditions: for EC50: Human immunodeficiency virus 1, 72 h, HIV-1NL4-3 MOI 0.1, 3 days; for inhibition of viral replication (in words): fivefold serial dilutions, 3 days
Description: as §2, §3

[5] = HIV-1NL4-3 MOI 0.1, 3 days, p24, mean ± SD, read-out: EC50
[6] = Table S1, WT virus, 10-fold serial dilution, p24, 3 days, read-out: EC50
[7] = HIV-1NL4-3 MOI 0.1, 3 days, p24, read-out: EC50

Compound | time of administration after infection at which effectiveness began to decrease / was lost (HIV-1NL4-3 [1]) | SI (CC50/EC50) (HIV-1NL4-3 [2]) | EC50 (HIV-1NL4-3 [2]; [5]) | EC50 (HIV-1NL4-3 [2]; [6]) | nested Alu-PCR band for integrated proviral DNA [3] | SI (CC50/EC50) (HIV-1NL4-3 [4]) | EC50 (HIV-1NL4-3 [4]; p24, mean ± SD) | inhibition of viral replication (in words) (HIV-1NL4-3 [4]) | EC50 (HIV-1NL4-3 [2]; [7]) | EC50 (HIV-1NL4-3 [4]; p24)
Cc1[nH]c2ccc(-c3nnc(SCC(=O)N4CCCCC4)o3)cc2c1C [Compound 9, 2-((5-(2,3-Dimethyl-1H-indol-5-yl)-1,3,4-oxadiazol-2-yl)thio)-1-(piperidin-1-yl)ethan-1-one] | 24 h | 315.14 | 0.14 ± 0.01 µM | 0.1 µM | observed | 224.40 | 0.25 ± 0.06 µM | inhibited the viral replication | – | –
CC(C)[C@]12O[C@H]1[C@@H]1O[C@]13[C@]1(O[C@H]1C[C@H]1C4=C(CC[C@@]13C)C(=O)OC4)[C@@H]2O [triptolide, reference compound] | 24 h | 11.23 | – | – | – | 54.05 | – | – | 0.0169 ± 0.00375 µM | 0.00407 ± 0.0023 µM
C[C@@H]1CCO[C@H]2Cn3cc(C(=O)NCc4ccc(F)cc4F)c(=O)c(O)c3C(=O)N12 [DTG, dolutegravir, reference compound] | 10 h | >18,270 | – | – | not detected | >7,670 | – | – | < 0.001 µM | < 0.001 µM
Cc1[nH]c2ccc(-c3nnc(SCC(=O)N4CCCC4)o3)cc2c1C [Compound 13, 2-((5-(2,3-Dimethyl-1H-indol-5-yl)-1,3,4-oxadiazol-2-yl)thio)-1-(pyrrolidin-1-yl)ethan-1-one] | 24 h | 282.81 | 0.16 ± 0.02 µM | 0.1 ± 0.01 µM | observed | 93.29 | 0.51 ± 0.21 µM | inhibited the viral replication | – | –
O=C1Nc2ccc(Cl)cc2[C@@](C#CC2CC2)(C(F)(F)F)O1 [EFV, efavirenz, reference compound] | 8 h | >29,460 | – | – | not detected | >22,740 | – | – | < 0.001 µM | < 0.001 µM
